Source: patent US20230312639A1, “GPER PROTEOLYTIC TARGETING CHIMERAS” (University of Iowa Research Foundation, priority 2020, published 2023)
Entries after “also recorded” stand apart in the source; their conditions may differ.

How the values were obtained:
HiBiT-ERα = target: T1, HiBiT-ERα (Homo sapiens, UniProt P03372); test: Nano-BiT binary luminescence complementation, transfected HEK-293 cells, total receptor; assay type: cell-based
T1 sequence (P03372 1-595): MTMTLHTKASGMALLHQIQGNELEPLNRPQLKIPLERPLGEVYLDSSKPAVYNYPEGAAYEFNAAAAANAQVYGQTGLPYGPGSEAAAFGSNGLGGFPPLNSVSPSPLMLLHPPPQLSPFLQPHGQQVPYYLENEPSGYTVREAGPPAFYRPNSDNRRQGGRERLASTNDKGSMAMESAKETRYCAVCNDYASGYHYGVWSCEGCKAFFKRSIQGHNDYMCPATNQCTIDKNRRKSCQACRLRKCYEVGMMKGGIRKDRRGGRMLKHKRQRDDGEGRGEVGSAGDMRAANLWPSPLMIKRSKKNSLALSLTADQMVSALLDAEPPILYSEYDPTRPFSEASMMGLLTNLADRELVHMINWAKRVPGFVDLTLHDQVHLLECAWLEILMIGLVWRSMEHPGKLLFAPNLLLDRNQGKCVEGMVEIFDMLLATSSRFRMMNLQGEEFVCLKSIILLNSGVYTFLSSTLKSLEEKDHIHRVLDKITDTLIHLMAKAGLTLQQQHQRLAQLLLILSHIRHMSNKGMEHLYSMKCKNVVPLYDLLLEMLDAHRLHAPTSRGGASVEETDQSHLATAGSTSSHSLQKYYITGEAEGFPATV
Procedure: FIG. 26. […] HEK-293 cells (ERα^-, GPER^-) were transiently transfected with 50 ng HiBiT-GPER or HiBiT-ER plus pcDNA3.1(+) zeo carrier plasmid. […] Results shown represent the mean ± S.E. of three independent experiments.
FIG. 28. […] Total receptor was then measured by binary luminescence complementation in detergent-permeabilized cells. […] Total receptor was then quantified by binary luminescence complementation. Representative luminescence data and mean values and SDs derived from three independent experiments are shown.
Transient transfections and binary Nano-Bit ™ luminescence assays. Total HiBiT-tagged GPER or ER estrogen receptors were detected in detergent-permeabilized cells by binary luminescence complementation with recombinant LgBit and substrate using the Nano-Glo HiBiT Extracellular Detection system kit (Promega Corporation, Madison, Wl). In brief, HEK293 cells (0.75 × 10^6) were seeded in 35 mm tissue culture dishes and 24 hours later were transiently transfected with 50 ng of HiBiT-GPER or HiBiT-ERa and 950 ng of pcDNA3.1(+) zeo carrier plasmid using Lipofectamine 2000 (Invitrogen, Carlsbad, CA). The next day transfected cells were harvested by trypsinization and seeded at a density of 10^4 cells/well in 96-well poly-L-lysine-coated Greiner white-bottomed microplates. On the following day, cell culture media was aspirated and replaced with 100 µL of serum-free PRF-DF12 containing E2-PROTAC, partial-PROTAC, or vehicle at various concentrations and for indicated time intervals at 37° C. […] Following treatment, total HiBiT-tagged receptor was measured in cells which were permeabilized in 0.05% Triton X-100 using HiBiT complementation reagent consisting of LgBiT protein and Nano-Gio® HiBiT substrate. Luminescence was measured using the Infinite 200 PRO multimode microplate reader from Tecan (Raleigh, NC) and reported as Relative Luminescent Units (RLU). All samples were measured in triplicate and expressed as the mean value plus or minus standard deviation.

HA-CXCR4 = HA-CXCR4 (Homo sapiens, UniProt P61073); test: Immunofluorescence with HA antibody, stably transfected HEK293 cells; assay type: cell-based; conditions: 100 µM, 1 hour
[1] = target: T2, HA-GPER (recombinant GPER) (Homo sapiens, UniProt Q99527); test: Surface receptor immunostaining / HA immunoblot in HA-GPER cells (Example 1); assay type: cell-based; conditions: 100 uM, 16 hr
T2 construct: expressed in transfected cells

native GPER = target: T3, native GPER (Homo sapiens, UniProt Q99527); test: Surface GPER immunostaining in human breast cancer cells (SKBR3, HCC-1806); assay type: cell-based
T3 construct: Similar results were obtained for native GPER in her2+ and TNBC breast cancer cells; endogenous in cells; host or cells: SKBR3 and HCC-1806 human breast cancer cells
Procedure: FIG. 4. PROTAC prototype Ul-EP001 reduces surface GPER. Similar results were obtained for native GPER in her2+ and TNBC breast cancer cells.
FIG. 18. […] Structure (A) and NMR spectrum (B) of UI-EP001. Human SKBR3 (Her2+) and HCC-1806 (TNBC) breast cancer cells were exposed to vehicle (untreated) or 100 µM of partial-PROTAC or E2p-PROTAC, Ul-EP001 for 16 hours. Cells were immunostained with GPER antibodies for 30 minutes and surface GPER was detected using goat anti-rabbit Alexa 594 IgG (red). Nuclei were countertained with DAPI (blue). (C).HA-GPER or HA-β1AR cells were treated with Ul-EP001 for the indicated times and immunoblotted with HA antibody (D) or immunostained for surface receptor (E). Total corrected red fluorescence (red) (TCRF) of treated and untreated HA-GPER or HA-β1AR cells was measured by subtracting cell background. […] Data not shown, no difference in surface GPER expression is measured in cells similarly treated with free 17β-E2.
To screen GPER-PROTACs, a GPER binding assay that measures a high-affinity (Kd= 2.7 nm), limited capacity, displaceable, single binding site specific for estrogens in plasma membranes of human SKBR3 breast cancer cells that express GPER but lack nuclear ER may be used (Thomas et al., 2005). GPER undergoes an uncommon mechanism of endocyosis that requires neither receptor phosphorylation, interaction with β--arrestin nor lysosomal activity. […]

ERα = target: T4, ERα (Homo sapiens, UniProt P03372); test: Immunostaining of endogenous receptors in MCF-7 cells; conditions: MCF-7, 1 hour
T4 sequence (P03372 1-595): T1 sequence (P03372 1-595)

ERβ = ERβ (Homo sapiens, UniProt Q92731); test: as above; conditions: MCF-7, 1 hour
GPER = GPER (Homo sapiens, UniProt Q99527); test: as above; conditions: MCF-7, 1 hour

## Cc1ncsc1-c1ccc(CNC(=O)C2CC(O)CN2C(=O)C(NC(=O)COCCOCCOCCOCC(=O)OC2CCC3C4CCc5cc(O)ccc5C4CCC23C)C(C)(C)C)cc1 (centres unmarked) [UI-EP001]
HiBiT-ERα; 100 µM, as early as 1 h
  reduction in expression level of recombinant ER: 50%
HiBiT-ERα; increasing doses, 1 hour, partial PROTAC 100 µM
  change of HiBiT-ERα: dose-dependent decrease
HA-CXCR4
  off-target degradation of HA-CXCR4: without detectable off-target degradation
[1]
  surface recombinant GPER / HA-GPER expression: causes downmodulation of surface recombinant GPER; also recorded: Significant degradation of GPER was observed
Native GPER
  expression of native GPER: downmodulates the expression of native GPER
ERα
  nuclear ERα expression: Clear site-specific reduction
ERβ
  nuclear ERβ expression: Clear site-specific reduction
GPER
  intracellular GPER expression: Clear site-specific reduction
